From ChEMBL document CHEMBL1201862, “PubChem BioAssay data set” (2004)
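Where inhibition never reached the appropriate level, the endpoint shown equals the highest concentration tested. Otherwise, values were interpolated linearly from a five-concentration, 48-hour dose response in 96-well plates. GI50 is the concentration that inhibits growth by half.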 Activity calls are given as the source filed them. Rule as the data show it: active = GI50 up to about 1.1 µM and inactive = higher.

Key:
Assay in all cases: growth of human tumour cells (NCI), 48 h
[1] = system: PC-3
[2] = system: OVCAR-5
[3] = system: NCI-H226
[4] = system: NCI-H460
[5] = system: SF-268
[6] = system: COLO 205
[7] = system: A549
[8] = system: T47D
[9] = system: ACHN
[10] = system: U-251
[11] = system: OVCAR-8
[12] = system: EKVX
[13] = system: HT-29
[14] = system: SK-MEL-2
[15] = system: UACC-62
[16] = system: CCRF-CEM
[17] = system: SW-620
[18] = system: NCI/ADR-RES
[19] = system: DU-145
[20] = system: RXF 393

Row | SMILES | GI50 [1] | GI50 [2] | GI50 [3] | GI50 [4] | GI50 [5] | GI50 [6] | GI50 [7] | GI50 [8] | GI50 [9] | GI50 [10] | GI50 [11] | GI50 [12] | GI50 [13] | GI50 [14] | GI50 [15] | GI50 [16] | GI50 [17] | GI50 [18] | GI50 [19] | GI50 [20]
1 | COc1ccc(CN/C=N/C(C#N)=C(\N)C#N)cc1OC | > 100 µM (inactive) | > 100 µM (inactive) | > 100 µM (inactive) | > 100 µM (inactive) | > 100 µM (inactive) | > 100 µM (inactive) | > 100 µM (inactive) | 83.6 µM (inactive) | > 100 µM (inactive) | > 100 µM (inactive) | > 100 µM (inactive) | > 100 µM (inactive) | > 100 µM (inactive) | > 100 µM (inactive) | > 100 µM (inactive) | > 100 µM (inactive) | > 100 µM (inactive) | > 100 µM (inactive) | > 100 µM (inactive) | 
2 | CCOC(=O)NC(Nc1ccc(S(=O)(=O)Nc2nc(C)cc(C)n2)cc1)(C(=O)OCC)C(F)(F)F (configuration not stated) | > 100 µM (inactive) | > 100 µM (inactive) | > 100 µM (inactive) | > 100 µM (inactive) | > 100 µM (inactive) | > 100 µM (inactive) | > 100 µM (inactive) | > 100 µM (inactive) | > 100 µM (inactive) | > 100 µM (inactive) | > 100 µM (inactive) | > 100 µM (inactive) | > 100 µM (inactive) | > 100 µM (inactive) | > 100 µM (inactive) | > 100 µM (inactive) | > 100 µM (inactive) |  | > 100 µM (inactive) | > 100 µM (inactive)
3 | C1=C[C@]2(CCC13OCCO3)COc1ccccc12 | 35.8 µM (inactive) | 30.9 µM (inactive) | 31.9 µM (inactive) | 31.7 µM (inactive) |  | 88.7 µM (inactive) | > 100 µM (inactive) | 47 µM (inactive) | 36.6 µM (inactive) | 48.8 µM (inactive) | 32.4 µM (inactive) | 66.1 µM (inactive) | 28.5 µM (inactive) | 34.7 µM (inactive) | 23.9 µM (inactive) | 33.3 µM (inactive) | 54.8 µM (inactive) | 27.4 µM (inactive) | 32.3 µM (inactive) | 
4 | OCC(O)C1OC2CC1Nc1ccccc1N2 (configuration not stated) | > 100 µM (inactive) | > 10 µM (inactive) | > 100 µM (inactive) | > 100 µM (inactive) | > 100 µM (inactive) | > 100 µM (inactive) | > 100 µM (inactive) | > 100 µM (inactive) | > 100 µM (inactive) | > 100 µM (inactive) | > 100 µM (inactive) | > 100 µM (inactive) | > 100 µM (inactive) | > 100 µM (inactive) | > 100 µM (inactive) | 78.2 µM (inactive) | > 100 µM (inactive) | > 100 µM (inactive) | > 100 µM (inactive) | 
5 | COc1c(-c2ccc(O)c(O)c2)oc2c(O)c(O)cc(O)c2c1=O | > 100 µM (inactive) | > 100 µM (inactive) | > 100 µM (inactive) | 55.6 µM (inactive) |  | > 100 µM (inactive) | 69.2 µM (inactive) | 67 µM (inactive) | > 100 µM (inactive) | 34.8 µM (inactive) | > 100 µM (inactive) | > 100 µM (inactive) | 20 µM (inactive) | > 100 µM (inactive) | 51.1 µM (inactive) | 29.2 µM (inactive) | 22.5 µM (inactive) | > 100 µM (inactive) | > 100 µM (inactive) | 
6 | C=C1CC(C)(c2cccc(Nc3nc4ccccc4c4occc34)c2)OC1=O (configuration not stated) | 5.52 µM (inactive) | 14.3 µM (inactive) | 1.5 µM (inactive) | 15.6 µM (inactive) | 10.5 µM (inactive) | 4.38 µM (inactive) | 3.92 µM (inactive) | 3.1 µM (inactive) | 4.8 µM (inactive) | 10 µM (inactive) | 6.08 µM (inactive) | 14.7 µM (inactive) | 4.99 µM (inactive) |  | 0.65 µM (active) | 2.07 µM (inactive) |  | 8 µM (inactive) | 5.6 µM (inactive) | 2.36 µM (inactive)
7 | C/C(=N\NC(=O)c1ccncc1)c1ccccc1F | > 10 µM (inactive) | > 10 µM (inactive) | > 10 µM (inactive) | > 10 µM (inactive) | > 10 µM (inactive) | > 10 µM (inactive) | > 10 µM (inactive) | > 10 µM (inactive) | > 10 µM (inactive) | > 10 µM (inactive) | > 10 µM (inactive) |  |  | > 10 µM (inactive) |  | > 10 µM (inactive) | > 10 µM (inactive) | > 10 µM (inactive) |  | > 10 µM (inactive)
8 | O=C1C=CC(=O)c2c1ccc1c3ccccc3n(Cc3ccc([N+](=O)[O-])cc3)c21 | > 100 µM (inactive) |  | > 100 µM (inactive) | > 100 µM (inactive) | > 100 µM (inactive) | > 100 µM (inactive) | > 100 µM (inactive) | 52.8 µM (inactive) | > 100 µM (inactive) | > 100 µM (inactive) | > 100 µM (inactive) | > 100 µM (inactive) | > 100 µM (inactive) |  | > 100 µM (inactive) | 10.9 µM (inactive) | 38.7 µM (inactive) | > 100 µM (inactive) | > 100 µM (inactive) | > 100 µM (inactive)
9 | c1cc2c(c(-c3c4ccccc4nc4ccccc34)c1)CC1(CC2)OCCO1 | > 100 µM (inactive) | > 100 µM (inactive) | > 100 µM (inactive) | > 100 µM (inactive) | > 100 µM (inactive) | > 100 µM (inactive) | > 100 µM (inactive) | > 100 µM (inactive) | > 100 µM (inactive) | > 100 µM (inactive) | > 100 µM (inactive) | > 100 µM (inactive) |  | > 100 µM (inactive) |  |  | > 100 µM (inactive) | > 100 µM (inactive) |  | > 100 µM (inactive)
10 | Cc1ccc(C2NC(=N)NC3=C2CCOc2c3ccc3ccccc23)cc1 (configuration not stated) | 21.9 µM (inactive) | 41.6 µM (inactive) |  | 14.2 µM (inactive) | 24.7 µM (inactive) | 20.8 µM (inactive) | 14.6 µM (inactive) | 25.2 µM (inactive) |  | 15.9 µM (inactive) | 33.6 µM (inactive) | 7.8 µM (inactive) | 1.81 µM (inactive) | 36.7 µM (inactive) | 2.58 µM (inactive) | 0.468 µM (active) | 6.84 µM (inactive) | 15.1 µM (inactive) | 7.35 µM (inactive) | 31.8 µM (inactive)
11 | CN1CCN(C2CC(=O)c3c(Cl)sc(Cl)c32)CC1 (configuration not stated) | 29.4 µM (inactive) | 27.7 µM (inactive) | > 42.8 µM (inactive) | 30.6 µM (inactive) | 8.85 µM (inactive) | 20.7 µM (inactive) | 21.3 µM (inactive) | 18.5 µM (inactive) | 18.5 µM (inactive) | 11.3 µM (inactive) | 7.66 µM (inactive) | 23.9 µM (inactive) | 11.4 µM (inactive) | 19.1 µM (inactive) | 16.3 µM (inactive) | 3.45 µM (inactive) | 7.94 µM (inactive) | 16.4 µM (inactive) | 12.6 µM (inactive) | 
12 | COC(=O)c1c(C)c2c(c(C)c1O)OC(=O)c1c(C)cc(O)c(C=O)c1O2 | > 100 µM (inactive) | > 100 µM (inactive) | > 100 µM (inactive) | > 100 µM (inactive) | > 100 µM (inactive) | > 100 µM (inactive) | > 100 µM (inactive) | > 100 µM (inactive) | > 100 µM (inactive) | > 100 µM (inactive) | > 100 µM (inactive) | > 100 µM (inactive) | > 100 µM (inactive) |  | 45.3 µM (inactive) | > 100 µM (inactive) | > 100 µM (inactive) | > 100 µM (inactive) | > 100 µM (inactive) | > 100 µM (inactive)
13 | CN(CCNC(=O)c1n[nH]c2c1Cc1ccccc1-2)CCNC(=O)c1n[nH]c2c1Cc1ccccc1-2 | 17.8 µM (inactive) | 18.6 µM (inactive) | 19.1 µM (inactive) | 18.1 µM (inactive) | 19.5 µM (inactive) | 17.3 µM (inactive) | 20.6 µM (inactive) | 18.8 µM (inactive) | 17.1 µM (inactive) | 19.3 µM (inactive) | 20.9 µM (inactive) | 20.6 µM (inactive) | 17.7 µM (inactive) |  | 19 µM (inactive) | 18.1 µM (inactive) | 22.1 µM (inactive) | 37.8 µM (inactive) | 15.5 µM (inactive) | 15.3 µM (inactive)
14 | Cc1ccc(NC(Nc2ccc(C)cc2C)=C(C(Cl)=C(Cl)Cl)[N+](=O)[O-])c(C)c1 | 12.4 µM (inactive) |  | 14.6 µM (inactive) | 13.9 µM (inactive) | 17.3 µM (inactive) | 17.5 µM (inactive) | 12.6 µM (inactive) | 10.5 µM (inactive) | 15.2 µM (inactive) |  | 16.2 µM (inactive) | 15.1 µM (inactive) | 17.5 µM (inactive) |  | 14.2 µM (inactive) | 3.35 µM (inactive) | 16.8 µM (inactive) | 7.21 µM (inactive) | 14.7 µM (inactive) | 15.2 µM (inactive)
15 | CCOC(=O)c1c(CN2CCNCC2)nc2ccc(Cl)cc2c1-c1ccccc1 | 2.54 µM (inactive) | 19.5 µM (inactive) | 12.6 µM (inactive) | 2.48 µM (inactive) | 5.6 µM (inactive) | 2.03 µM (inactive) | 5.31 µM (inactive) | 4.82 µM (inactive) | 5.45 µM (inactive) | 12.9 µM (inactive) | 4.21 µM (inactive) | 9.38 µM (inactive) | 1.79 µM (inactive) | 1.79 µM (inactive) | 1.77 µM (inactive) | 2.51 µM (inactive) | 2.03 µM (inactive) |  | 16.2 µM (inactive) | 2.58 µM (inactive)
